Patent US12233057B2, “Small molecules for inhibiting chemokine activity and/or cancer cells growth” (AlonBio Ltd., priority 2015, dated 2025)

Key:
SDF-1 = assay: Migration assay: Jurkat cells towards SDF-1 (Transwell); assay type: cell-based, human; conditions: for Inhibition of SDF-1/CXCR4 mediated migration of Jurkat cells: 1, 5, 10 and 50 μM (FIGS. 19A-B)
Method: (§1) 600 μl of RPMI medium was added to the lower chambers of Transwell® transmigration plates, supplemented with 2 μg/ml of MIP3a, 100 ng/ml of SDF-1 or 10 ng/ml of MCP-1. The tested small molecule was added to the lower chambers at the indicated concentration, except in control samples. The MIP3a, SDF-1 or MCP-1 was incubated with the small molecule for 30 minutes at room temperature before the initiation of the migration assay. Following 30 minutes of incubation 2×10^5 immune cells were added to the upper chambers of the transmigration plates in a total volume of 100 μl. Cells which migrated within 3 hours to the bottom chamber of the Transwell® plates were counted using a FACScalibur™ flow cytometer.
To evaluate migration towards SDF-1, Jurkat cells were re-suspended in RPMI medium containing 1% fetal calf serum (FCS).

[1] = tested on: MV4-11 human acute myeloid leukemia cells; assay: Cancer cell viability assay, propidium iodide staining (FACS); assay type: cell-based
Method: (§2) The cancer cells were incubated in cell medium with 1% fetal calf serum (FCS) at a concentration of 2×10^5 cells/well at a final volume of 250 μl in 96-well plate. The tested small molecule was added to the cells at the indicated concentrations. The cells were incubated for 24 hours and the number of dead and viable cells was then evaluated by fluorescence-activated cell sorting (FACS), using propidium iodide (PI) staining. The IC50 of the small molecule-induced cell death was determined using GraphPad Prism software.
In order to assess the effect of BKT300 on cancer cells viability, the in vitro effect on MV4-11 human acute myeloid leukemia cells was evaluated. The MV4-11 cancer cells were incubated in RPMI cell medium with 1% fetal calf serum (FCS) at a concentration of 2×10^5 cells/well at a final volume of 250 μl in 96-well plate. BKT300 was added to the cells at the indicated concentrations. The cells were incubated for 24 hours and the number of dead and viable cells was then evaluated by fluorescence-activated cell sorting (FACS), using propidium iodide (PI) staining. The IC50 of […] cell death was determined using GraphPad Prism software.

U937 cells [2] = assay: Cell cycle by 7-AAD assay in U937 cells; assay type: cell-based; conditions: U937, 24 hours; for Effect on cell cycle: any of the tested concentrations (0.1, 1 and 10 μM)
Method: (§3) U937 cells were incubated for 24 hours with RPMI medium 1% FCs in the presence of 0.1, 1, and 10 μM of Compounds A1, A3, B1, D1 and BKT300-3-c5, using DMSO as a solvent.
Cell cycle was measured using the 7-AAD assay.

U937 cells [3] = assay: Apoptosis and cell viability by annexin-V/PI assay in U937 cells; assay type: cell-based; conditions: U937, 24 hours; for Effect on apoptosis: any of the tested concentrations (0.1, 1 and 10 μM); for Concentration at which an effect on apoptosis was observed / Concentration at which an effect on cell viability was observed: tested 0.1, 1 and 10 μM
Method: as §3
Apoptosis and cell viability were measured using the annexin-V/PI assay.

Legionella = conditions: cited from earlier work
other bacteria = conditions: Nomura et al., Biol Pharm Bull 2012; cited from earlier work
[4] = animal studies; Wilson et al. 2011; cited from earlier work
metastasis = conditions: animal studies; Smith et al. 2004; cited from earlier work
glioblastoma = conditions: animal studies; Kioi et al. 2010; cited from earlier work
various cancer cells = assay: 7-ADD staining of various cancer cells (cell cycle / apoptosis); assay type: cell-based; conditions: 1 μM, 24-hour incubation, all tested cells (FIG. 29)
Method: While further studying the activity of BKT300-3-c5, various cancer cells were incubated with 1 μM BKT300-3-c5, and without it (control), and then stained for 7-ADD.

RPMI8826 = assay: Inhibition of cell growth in additional cancer cell lines; assay type: cell-based; conditions: 1.0 Micromolar; RPMI8826, Myeloma
OVCAR3 = assay: as above; assay type: cell-based; conditions: Homo sapiens, OVCAR-3; 1.0 Micromolar; OVCAR3, Ovarian
Toledo = assay: as above; assay type: cell-based; conditions: Homo sapiens, 1.0 Micromolar, DLBCL
Farage = assay: as above; assay type: cell-based; conditions: 1.0 Micromolar, DLBCL
SKNBE = assay: as above; assay type: cell-based; conditions: 1.0 Micromolar, Neuroblastoma
caspase-3 = assay: Cleaved caspase-3 by Western blot and Elisa in AML cell lines NB4, U937 and MV4-11; assay type: cell-based, human; conditions: 1 μM, 24 hours; NB4, U937 and MV4-11 (FIGS. 31A-C)
Method: In still further studies, the role of caspase-3 (CASP3) in the BKT300-3-c5-induced apoptosis of AML cell lines NB4, U937 and MV4-11 was tested. Cells were incubated with BKT300-3-c5 (1 μM) for 24 hours, and were then tested for the presence of cleaved using mAb against human cleaved caspase 3 by Western blot and Elisa assay to caspase-3.

SU-DHL-4 = assay: Inhibition of cell growth in additional cancer cell lines; assay type: cell-based; conditions: Homo sapiens; 1.0 Micromolar; SU-DHL-4, DLBCL
SU-DHL-6 = assay: as above; assay type: cell-based; conditions: Homo sapiens; 1.0 Micromolar; SU-DHL-6, DLBCL
HL60 = assay: as above; assay type: cell-based; conditions: Homo sapiens, HL-60; 1.0 Micromolar; HL60, AML
MCP-1 = MCP-1 (Homo sapiens, UniProt P13500); assay: Migration assay: THP-1 cells towards MCP-1 (Transwell); assay type: cell-based; conditions: 0.1, 0.5, 1 and 10 μM (FIG. 20B)
Method: as §1
To evaluate migration towards MCP-1, JTHP-1 cells were re-suspended in RPMI medium containing 1% fetal calf serum (FCS).

K562 = assay: Inhibition of cell growth in additional cancer cell lines; assay type: cell-based; conditions: Homo sapiens; 1.0 Micromolar; K562, CML
[5] = tested on: MV4-11, U937, REH, THP-1, NB4, PC-3 and B16-F10 cells; assay: Cancer cell viability assay (PI staining), comparison with IPI-145 in all tested cell lines; assay type: cell-based; conditions: 24 hours
Method: as §2
The effect of BKT300-3-c5 on the viability of various cancer cells has been tested, as described under the “method” section hereinabove, and compared to the effect of IPI-145.
FIGS. 22A-B, 23A-B, 24A-B and 25A-B present the effect of BKT300-3-c5 and IPI-145 on various leukemic cells: U937, REH, THP-1 and NB4, respectively.
FIG. 26 presents the effect of BKT300-3-c5 and IPI-145 on prostate cancer PC-3 cells.
FIG. 27 presents the effect of BKT300-3-c5 and IPI-145 on melanoma B16-F10 cells.

MV4-11 cells = assay: Annexin-V and Propidium Iodide staining of MV4-11 cells; assay type: cell-based, human; conditions: 1 μM, 24 hours (FIG. 30)
Method: In further studies, apoptosis induction by BKT300-3-c5 was established by incubating MV4-11 cells with and without BKT300-3-c5 (1 μM) for 24 hours, followed by staining the cells for Annexin-V and Propidium Iodide (PI).

H460 = assay: Inhibition of cell growth in additional cancer cell lines; assay type: cell-based; conditions: Homo sapiens, NCI-H460; 1.0 Micromolar; H460, Lung

MCP-1, sequence (P13500 24-99): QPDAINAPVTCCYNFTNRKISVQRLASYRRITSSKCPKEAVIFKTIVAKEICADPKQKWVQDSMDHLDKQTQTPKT

CCCCCc1cc(OC)ccc1Oc1cc(OC)cc2c1NC(=O)C(CCCCC)C2=O (stereo not shown) [BKT300-11-a5, 6-methoxy-8-(4-methoxy-2-pentylphenoxy)-3-pentylquinoline-2,4(1H,3H)-dione]
Inhibition of SDF-1/CXCR4 mediated migration of Jurkat cells (SDF-1): inhibition
Effect on the viability of MV4-11 cells ([1]; 1.328, 6.64, 13.28 and 26.56 μM (FIGS. 28A-B)): affect viability

CCCCCc1cc2cc(O)cc(Oc3c(O)cc(O)c(C(=O)O)c3CCCCC)c2c(=O)o1 [BKT400]
Inhibition of migration of Jurkat cells towards SDF-1 (SDF-1; 1 and 10 μg/ml (FIG. 2C)): inhibit

COc1ccc(Oc2cc(OC)cc3c2NC(=O)CC3=O)c(OC)c1 [Compound A1, 8-(2,4-dimethoxyphenoxy)-6-methoxyquinoline-2,4(1H,3H)-dione]
Effect on cell cycle (U937 cells [2]): no effect
Effect on apoptosis (U937 cells [3]): no effect

CCC1C(=O)Nc2c(Oc3ccc(OC)cc3OC)cc(OC)cc2C1=O (stereo not shown) [Compound A3, 8-(2,4-dimethoxyphenoxy)-3-ethyl-6-methoxyquinoline-2,4(1H,3H)-dione]
Effect on cell cycle (U937 cells [2]): no effect
Effect on apoptosis (U937 cells [3]): no effect

CCCCCC1C(=O)Nc2c(Oc3ccc(OC)cc3)cc(OC)cc2C1=O (stereo not shown) [Compound B1, 6-methoxy-8-(4-methoxyphenoxy)-3-pentylquinoline-2,4(1H,3H)-dione]
Concentration at which cell cycle arrest is demonstrated (U937 cells [2]; tested 0.1, 1 and 10 μM): 10 µM
Concentration at which some effect on cell cycle is already observed (U937 cells [2]; tested 0.1, 1 and 10 μM): 1 µM
Concentration at which an effect on apoptosis was observed (U937 cells [3]): 1 µM
Concentration at which an effect on cell viability was observed (U937 cells [3]): 1 µM

CCCCCC(=O)Cc1cc(O)cc(O)c1Oc1cc(O)cc2cc(CCCCC)oc(=O)c12 [8-(2,4-dihydroxy-6-(2-oxoheptyl)-phenoxy)-6-hydroxy-3-pentyl-1H-isochromen-1-one]
Antibacterial activity against Legionella (Legionella): potent antibacterial activity
Antibacterial activity against other bacteria (other bacteria): not against other bacteria

c1cc(CN2CCCNCCNCCCNCC2)ccc1CN1CCCNCCNCCCNCC1 [plerixafor]
Effect on opioid-induced hyperalgesia [4]: counteract opioid-induced hyperalgesia
Effect on metastasis (metastasis): reduce metastasis
Effect on recurrence of glioblastoma (glioblastoma): reduce recurrence of glioblastoma associated with vasculogenesis

C[C@H](Nc1ncnc2nc[nH]c12)c1cc2cccc(Cl)c2c(=O)n1-c1ccccc1 [IPI-145, reference compound]
Apoptotic cell death, 7-ADD staining (various cancer cells): does not affect growth arrest nor apoptosis
Growth arrest (cell cycle), 7-ADD staining (various cancer cells): does not affect growth arrest nor apoptosis

CCCCCC1C(=O)Nc2c(Oc3ccc(OC)cc3OC)cc(OC)cc2C1=O (stereo not shown) [BKT300-3-c5, 8-(2,4-dimethoxyphenoxy)-6-methoxy-3-pentylquinoline-2,4(1H,3H)-dione]
inhibition at 1 µM (RPMI8826): 90.6%
inhibition at 1 µM (OVCAR3): 93.7%
inhibition at 1 µM (Toledo): 4%
inhibition at 1 µM (Farage): 40%
inhibition at 1 µM (SKNBE): 73%
Inhibiting SDF-1/CXCR4 mediated migration of Jurkat cells, compared to IPI-145 (SDF-1; 1, 5, 10 and 20 μM (FIG. 20A)): more effective that IPI-145
Inhibition of SDF-1/CXCR4 mediated migration of Jurkat cells (SDF-1): inhibition
Cleaved caspase-3 in induced apoptosis (caspase-3): via caspase-3 activation
Concentration at which cell cycle arrest is demonstrated (U937 cells [2]; tested 0.1, 1 and 10 μM): 0.1 µM
IC50 ([1]; Homo sapiens, MV4-11, 24 hour-treatment (FIG. 21B), read-out: IC50, viability of MV4-11 AML cells): 850 nM
inhibition at 1 µM (SU-DHL-4): 34%
inhibition at 1 µM (SU-DHL-6): 50%
inhibition at 1 µM (HL60): 94.9%
Concentration at which an effect on apoptosis was observed (U937 cells [3]): 0.1 µM
Concentration at which an effect on cell viability was observed (U937 cells [3]): 0.1 µM
Inhibiting MCP-1 induced migration of THP-1, compared to IPI-145 (MCP-1): more effective that IPI-145
Apoptotic cell death, 7-ADD staining (various cancer cells): induce apoptotic cell death
Growth arrest (cell cycle), 7-ADD staining (various cancer cells): arrest the growth at the G2M phase
inhibition at 1 µM (K562): 71%
Reducing the survival of cancer cells, compared to IPI-145 [5]: superior effect compared to IPI-145
Apoptosis induction, percentage of viable MV4-11 cells (MV4-11 cells): reduction in the percentage of viable cells via apoptosis
inhibition at 1 µM (H460): 78%

CCCCCC1C(=O)Nc2c(Oc3ccccc3OC)cc(OC)cc2C1=O (stereo not shown) [Compound D1, 6-methoxy-8-(2-methoxyphenoxy)-3-pentylquinoline-2,4(1H,3H)-dione]
Concentration at which cell cycle arrest is demonstrated (U937 cells [2]; tested 0.1, 1 and 10 μM): 1 µM
Concentration at which an effect on apoptosis was observed (U937 cells [3]): 0.1 µM
Concentration at which an effect on cell viability was observed (U937 cells [3]): 0.1 µM
